# Measured values as given in patent US20060241067A1, “Methods For inhibiting angiogenesis, cell migration, cell adhesion, and cell survival” (priority 2002, published 2006).
# Assays:
# protein kinase A = test: PKA activity assay in HUVECs; assay type: cell-based, human; conditions: for PKA activity in endothelial cells: 10 μM PTHrP or 250 μM dibutyryl cAMP
# Experimental: PKA activity was measured in HUVECs essentially as previously described in Kim et al (S. Kim et al., Amer. J. Biol. Chem., 275:33920-33928 (02000)). HUVECs were placed in suspension, allowed to attach to ECM protein coated plates in the absence or presence of anti-integrin antibodies or were treated with 10 μM PTHrP and/or 250 μM cAMP. PKA activity was measured at various times from 0-4 hrs (e.g., 2-30 min).
# Plates were washed and blocked in 3% bovine serum albumin for 1 hour at 37° C. HUVECS were trypsinized and resuspended in adhesion buffer (Hanks balanced salt solution supplemented with 10 mM HEPES, pH 7.4, 2 mM MgCl2, 2 mM CaCl2, 0.2 mM MnCl2, 1% BSA. Cells were plated on matrix protein coated plates in culture medium or in the presence of 25 μg/ml anti-α5β1, anti-αvβ3 or anti-α2β1 antibodies for various times from 0 minutes to 4 hours. Plates were washed with phosphate buffered saline and cells were extracted with cold extraction buffer (50 mM Tris, pH 7.5, 5 mM EDTA, 25 μg/ml aprotinin and 25 μg/ml leupeptin). Protein Kinase A activity was assessed using a kit from Gibco BRL. Briefly, equal volumes of lysate and reaction mixture containing final concentrations of 50 mM Tris, pH 7.5, 10 mM MgCl2, 0.25 mg/ml BSA, 50 μM Kemptide (a protein kinase A substrate), 3000 Ci/mmol (γ^32 P) ATP and 100 μM ATP were combined for 5 minutes at 30° C. Total PKA in each sample was measured by performing the assay in the presence of 10 μM cAMP. Background PKA activity in test and total PKA samples were determined by performing the assay in the presence of a PKA inhibitor peptide, PKI (6-22) amide. Twenty μl samples of reaction mixtures were spotted onto phosphocellulose discs and washed repeatedly with 1% (v/v) phosphoric acid in water. Incorporated radioactivity was determined by scintillation counting. Activated PKA was calculated from the ratio of pmol/min test sample PKA to pmol/min total PKA. PKA activity in triplicate samples was measured and experiments were repeated at least three times.
# In another embodiment, PKA assays were performed with a kit from Calbiochem (San Diego, Calif.). Cell lysates were incubated in ELISA plates coated with a PKA peptide substrate, then incubated with anti-phosphoserine antibodies. Bound antibody was detected after incubation with anti-rabbit IgG-horse radish peroxidase. Statistical analyses were performed using Student's t-test.
# HUVECS = test: Annexin V-FITC staining of HUVECs (apoptosis); assay type: cell-based, human; conditions: cells on vitronectin, PTHrP, 250 μM dibutyryl cAMP or transfection
# Experimental: Plates were also coated with […] goat anti-mouse IgG (Southern Biotechnology Associates, Inc., Birmingham, Ala.) at 37° C. for 2 h, rinsed, blocked with denatured BSA, and then incubated with […] anti-a5b1 or control IgG (anti-MHC) at 4° C. for 16 hrs. HUVECs were incubated on plates in the presence or absence of 10 mg/ml anti-α5β1, -αvβ3, -α2β1, or -MHC for 0-24 hrs. In some experiments, HUVECs were incubated with antibodies and […] caspase-3, -8 or -9 inhibitors or vehicle control (0.5% DMSO). Cells were then incubated with Annexin V-FITC for 15 min at room temperature in the dark. Washed cells were fixed in 1% paraformaldehyde, then incubated in DAPI. The percentage of Annexin positive cells in 5 microscopic fields was determined at 200× magnification by fluorescence microscopy.
# HUVECs were plated for 24 h on ECM protein-coated plates in the presence of anti-αvβ3 or anti-α5β1, 1 μM HA1004 (a PKA inhibitor), and anti-αvβ3 or anti-α5β1 with 1 μM HA1004. Cells were stained with FITC-Annexin V or immunoblotted with anti-cleaved caspase 3 antibodies as described above. 5×10^6 HUVECs were electroporated in 300 μl of EGM with 30 μg of DNA (20 μg dnPKA or PKAcat plasmids, 2 μg N1-GFP and 8 μg pBluescript) at 300 V, 450 μF as previously described (Dormond et al. (2001) Nature Med. 7,1041-7). Expression of transgenes was determined by Western blotting of cell lysates with anti-V5 and anti-GFP antibodies. Transfection efficiency was quantified by determining the percent of cells that were co-transfected with GFP-expression vectors. Eighty-percent transfection efficiency was generally achieved using this electroporation method.
# [1] = test system: Human umbilical vein endothelial cells (HUVEC); test: Cell adhesion (attachment) assay on ECM substrates; assay type: cell-based; conditions: cAMP treatment or PKA catalytic subunit transfection
# Experimental: (§1) Human umbilical vein endothelial cells (HUVEC) were grown in Endothelial Growth Medium (containing 2% fetal bovine serum, bFGF and VEGF) (Clonetics, San Diego, Calif.). To render HUVECs quiescent for Rac and/or Rho assays, monolayers of endothelial cells were incubated for 18 hrs in Endothelial Basal Medium supplemented with 0.1% serum (Clonetics). Cell migration and adhesion assays on ECM substrates were performed as previously described in Kim et al. (S. Kim et al., Amer. J. Biol. Chem., 275:33920-33928 (2000); and S. Kim et al., Amer. J. Path., 156:1345-1362 (2000)).
# [2] = test system: Human umbilical vein endothelial cells (HUVEC); test: Endothelial cell migration assay (transwell) on ECM substrates; assay type: cell-based; conditions: 250 μM dibutyryl cAMP or transient transfection with expression constructs
# Experimental: as §1
# Migration assays were performed essentially as described (Kim, et. al., 2000). […] HUVECS (25,000) were added to the upper chamber of inserts in migration buffer (Hepes buffered M199 medium containing 1% BSA, 2 mM MgCl2, 2 mM CaCl2 and 0.2 mM MnCl2) containing 25 μg/ml of various antibodies. In some experiments, 250 μM dibutyryl cAMP was placed in the upper and lower chambers of the transwell. Cells were allowed to migrate from the upper to the lower chamber for four hours at 37° C. The number of cells which had migrated were counted in three representative high power (200×) fields per insert. The data are presented as number of cells migrating+/−standard error of the mean. Migration assays were similarly performed on transfected cells. In this case, migrated transfected cells were identified by fluorescent microscopy and counted.
# [3] = after stimulation of endothelial cells
structure (smiles),measurement,setting,value
CCCC(=O)Nc1ncnc2c1ncn2[C@@H]1O[C@@H]2COP(=O)(O)O[C@H]2[C@H]1OC(=O)CCC [dibutyryl cAMP],PKA activity in endothelial cells,protein kinase A,rapidly stimulate PKA activity in endothelial cells
same,PKA activity in endothelial cells,protein kinase A; listed as cell permeable cAMP,activates PKA
same,time at which PKA activation is detected,protein kinase A; [3],2 min
same,time of maximal PKA activity,protein kinase A; [3],15 min
same,apoptosis of endothelial cells (annexin V positive cells),HUVECS,induced apoptosis in endothelial cells
same,apoptosis of endothelial cells (annexin V positive cells),HUVECS; listed as cAMP,significantly induce apoptosis
same,cell attachment to vitronectin,[1],enhanced cell attachment to vitronectin
same,endothelial cell migration on vitronectin,[2],quantitatively inhibits endothelial cell migration
